Experimental data: ChEMBL document CHEMBL1152045, “Synthesis of the pyrimidine analog of 4,5,6,7-tetrahydroimidazo[4,5,1-jk][1,4]benzodiazepin-2(1H)one (TIBO) potential for HIV-1 inhibition” (Bioorg Med Chem Lett, 1991); call rule not given here

What was measured:
MT4 [1] = assay: Compound was tested for its anti HIV-1 activity in MT-4 cells up to 2 uM concentration; No activity against HIV-l virus replication.; type: functional, cell-based, Homo sapiens
MT4 [2] = assay: Compound was tested for its anti HIV-1 activity in MT-4 cells.; type: functional, cell-based; settings: Homo sapiens

Compound | IC50 (MT4 [1]) | IC50 (MT4 [2])
CC(C)=CCN1Cc2ncnc3nc(O)n(c23)CC1C (configuration not stated) | Not Active | 
CC(C)=CCN1Cc2cc(Cl)cc3[nH]c(=S)n(c23)C[C@@H]1C |  | 42 nM
